This is an account of results in US6201147A, “Process for the resolution of esters of arylalkylcarboxylic acids” (BASF Aktiengesellschaft, priority 1998, dated 2001).

For assay [1], the target named is T1, Candida antarctica lipase (CAL-B, Chirazyme L-2) (Moesziomyces antarcticus, UniProt P41365).
T1 construct: purchased Boehringer Mannheim, Penzberg, Germany
T1 sequence (P41365 26-342): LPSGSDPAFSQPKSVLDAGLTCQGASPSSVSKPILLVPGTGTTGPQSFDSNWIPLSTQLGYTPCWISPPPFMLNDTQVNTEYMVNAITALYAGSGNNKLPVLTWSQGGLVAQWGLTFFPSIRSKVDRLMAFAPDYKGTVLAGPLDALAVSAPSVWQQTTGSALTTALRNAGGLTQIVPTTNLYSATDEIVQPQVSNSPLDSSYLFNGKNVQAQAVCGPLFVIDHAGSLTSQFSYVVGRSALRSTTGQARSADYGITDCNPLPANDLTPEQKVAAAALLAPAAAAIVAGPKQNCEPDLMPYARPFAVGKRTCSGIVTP
The assay can be described thus: Lipase-catalyzed transesterification with n-hexanol in toluene. Format: biochemical. As to conditions: for equilibrium constant (value in brackets): transesterification of ethyl esters with n-hexanol, calculated according to Anthonsen et al. The method, then: (§1) If not described otherwise, the ^1 H-NMR spectra were recorded at 250.1 and 500.1 MHz and the ^13 C-NMR spectra at 62.9 and 125.7 MHz in CDCl3 using tetramethylsilane as an internal standard. In cases in which both the racemate and the enatiomeric pure compounds were synthesized, the racemate was used for the full characterization of the compound. […] The gas-chromatography (=GC) analyses were carried out with an Optima 5 column (25 m×0.25 mm; Macherey & Nagel, Duren, Germany) for the determination of the conversion and purity and with a heptakis-(2,3-di-O-acetyl-6-O-TBDMS) -β-cyclodextrin column (25 m×0.25 mm, Prof. W. A. Konig, University of Hamburg, Germany) for the determination of the enantiomeric excess. The immobilized lipase used was Candida antarctica lipase (Chirazyme L-2, c.-f., C2, 5000 U/g) from Boehringer Mannheim, Penzberg, Germany, if not described otherwise. The absolute configuration of the biotransformation products was determined by means of comparison with optically pure standards, which were prepared from the commercially obtainable optically pure carboxylic acids. The enantiomeric excess was calculated by comparison with literature values. The enantioselectivity was determined using the formula E=[ln{(1-c)×(1-ees)}]/[ln{(1-c)×(1+ees)}],
Lipase-catalyzed transesterification: 100 μl of the vinyl esters (0.52 mmol) and 560 μl of n-hexanol (4.49 mmol) were […] stirrer. The reaction was started by addition of 100 mg of CAL-B lipase (500 U) (see Scheme II). Samples were taken from the reaction, diluted with toluene and the lipase was removed by means of centrifugation. The samples were analyzed by GC using the Optima 5 column. After ending the reaction by filtration, product and unreacted substrate were purified by flash chromatography. The enantiomeric purities were determined by means of the specific rotation. In the case of the substrates (±)-3, (±) -4 and (±) -6, the optical purity was additionally determined by means of chiral GC. The ethyl esters were correspondingly reacted as a comparison experiment (see Scheme III). The hydrolysis of the ethyl esters was carried out as a further comparison experiment (see Scheme III).

In assay [2] the target is T1, Candida antarctica lipase (CAL-B, Chirazyme L-2). Description: Hydrolysis of the ethyl esters with pH-statting. Format: biochemical. As to conditions: hydrolysis in phosphate buffer 50 mM, pH 7.5, 40° C., calculated according to Chen et al. How it is done:
as §1
The hydrolysis of the ethyl esters was carried out with pH-statting. In general, 1 mmol of substrate (6-8) was taken up at 40° C. in 20 ml of phosphate buffer (50 mM, pH 7.5). 200 mg of CAL-B (1000 U) were added at the start of the reaction. The pH was kept constant through the reaction using 0.1 N NaOH. After consumption of base indicated a marked conversion of the substrate, unused substrate was removed by means of extraction with heptane. […] The organic phases were dried using Na2 SO4 and the enantiomeric excess was determined for all compounds by means of the specific rotation and for (±)-6 additionally by means of chiral GC.

Assay [3] deals with T2, lipase CAL-B (Moesziomyces antarcticus, UniProt P41365).
T2 construct: purchased Boehringer Mannheim
T2 sequence (P41365 26-342): T1 sequence (P41365 26-342)
Description: Lipase-catalyzed transesterification with methanol in toluene. As to conditions: 40° C., 5 hours, calculated from conversion and eep. Format: biochemical, Candida antarctica. How it is done: The racemic ibuprofen vinyl ester (209 mg, 0.90 mmol) and methanol (240 mg, 7.5 mmol) were disolved in 8 ml toluene and stirred at 40° C. The reaction was started by adding 416 mg of lipase CAL-B (L-2, c.f., C2, lyo.; Boehringer Mannheim). After 5 hours, the reaction was completed by filtering off the lipase, and the reaction mixture was analyzed by gas chromatography in a chiral column (2,3 di-O-methyl-6-O-pentyl-ε-cyclodextrin). The product and unreacted substrate were purified by flash chromatography on silica gel (developer: ligroin/diethyl ether 35:1). Conversion (GC): 40.5%; Yields: ibuprofen methyl ester 64 mg (0.29 mmol; 32%), eep =76% (GC); ibuprofen vinyl ester 98 mg (0.42 mmol, 47%), ees =[…] (calculated from conversion and eep). An E value of 12 is calculated from conversion and eep.

Where [4] appears, read: transesterification with n-hexanol in toluene, 40° C., CAL-B, calculated according to Chen et al.

Bounds are passed on as bounds.

Regarding `C=COC(=O)C(CC)c1ccccc1` (racemic) [(±)-3, Vinyl (±)-2-phenylbutyrate], the “E (enantioselectivity)” value in assay [1] (setting [4]) is on record as more than 100.

Consider `C=COC(=O)C(C)c1ccccc1` (racemic) [(±)-4, Vinyl (±)-2-phenylpropionate], for which, in assay [1] (setting [4]), the “E (enantioselectivity)” value is reported as 26.

In the case of `C=COC(=O)CC(C)c1ccccc1` (racemic) [(±)-5, Vinyl (±)-3-phenylbutyrate], the results for the “E (enantioselectivity)” value in assay [1] (transesterification with n-hexanol in toluene at room temperature (about 23° C.)) and in assay [1] (setting [4]) were 23 and 13, respectively.

On to `CCOC(=O)C(CC)c1ccccc1` (racemic) [(±)-6, Ethyl (±)-2-phenylbutyrate], for which, in assay [1] (40° C.), the “equilibrium constant (value in brackets)” value is recorded as 110. Moreover, the results for the “E (enantioselectivity)” value in assay [1] (setting [4]) and in assay [2] were 5.7 and 3.7, respectively.

In the case of `CCOC(=O)C(C)c1ccccc1` (racemic) [(±)-7, Ethyl (±)-2-phenylpropionate], in assay [1] (40° C.), the “equilibrium constant (value in brackets)” value is on record as 123. Further, the figures for the “E (enantioselectivity)” value in assay [1] (setting [4]) and in assay [2] were 6.8 and 3.5, respectively.

With `CCOC(=O)CC(C)c1ccccc1` (racemic) [(±)-8, Ethyl (±) -3-phenylbutyrate], the “equilibrium constant (value in brackets)” value in assay [1] (40° C.) was 135. In addition, the “E (enantioselectivity)” value in assay [1] (setting [4]) was 4.9; in assay [2], 9.

Take `C=COC(=O)C(C)c1ccc(CC(C)C)cc1` (racemic) [ibuprofen vinyl ester]: the E value in assay [3] is 12.
